Where two headings read alike, the source gives them in different places.
What was measured:
[1] = stress-induced erosion test (Senay and Levine), anti-ulcer activity; assay type: in vivo
Description: Anti-ulcer activity was determined by the stress-induced erosion test of Senay and Levine, Proc. Soc. Exp. Biol. Med., 124, 1221-3 (1967).

H^+ /K^+ ATPase = target: T1, H^+ /K^+ ATPase (Oryctolagus cuniculus, UniProt P27112); assay: inhibition of 14C-aminopyrine accumulation in rabbit isolated gastric glands stimulated by DBcAMP or high K+ (H+/K+ ATPase inhibition); assay type: cell-based; conditions: 10^-4 M, 14C-aminopyrine uptake
T1 construct: Rabbit gastric glands are isolated from gastric mucosa from the corpus region of the stomach; from tissue; host or cells: isolated gastric glands from rabbit gastric mucosa, corpus region of the stomach
Description: Compounds of formula I were also tested for anti-secretory activity by their ability to inhibit the highly specific proton transporting enzyme H^+ /K^+ ATPase.
Potential H^+ /K^+ ATPase inhibitors are evaluated by a technique involving the measurement of aminopyrine accumulation in rabbit isolated gastric glands. Aminopyrine, which is a weak base, accumulates in acid-secreting cells; therefore, uptake of aminopyrine is increased by secretagogues and an inhibitor of acid secretion will reduce the response to one or more secretagogues depending upon its site of action. Compounds which reduce the response to dibutyryl cyclic adenosine monophosphate (DBcAMP) stimulation are assumed to have an intracellular site of action, and those which reduce the response to both DBcAMP and high potassium ion concentration (K^+) are thought to have an intracellular site of action at the secretory surface of the parietal cell, involving the highly specific proton - transporting enzyme, H^+ /K^+ ATPase. The following test procedure is used:
Rabbit gastric glands are isolated from gastric mucosa from the corpus region of the stomach by a method based on one described by Berglindh T., Obrink K. J., Acta Physiol. Scand. 96, 150-159 (1976). Measurement of aminopyrine uptake is carried out using a modification of the method described by Berglindh T., Hellander H. F., Obrink K. J. (ibid, 97, 401-414, 1976).
Compounds are tested at a concentration of 10^-4 M, initially, and in some cases at lower concentrations, for their ability to inhibit ^14 C-aminopyrine uptake in gastric glands, stimulated by DBcAMP and high K^+ respectively. Results are expressed as the % inhibition of the maximum response to the secretagogue induced by the test compound. An inhibitor of H^+ /K^+ ATPase would be expected to reduce the response to both secretagogues.

[2] = anti-secretory test of Shay et al (as exemplified by Beattie et al); assay type: in vivo; conditions: read-out: Anti-Secretory (Shay et al) % Change in volume
[3] = DBcAMP stimulation, read-out: % Inhibition to Stimulation by DBcAMP at 10^-4
[4] = high K+ stimulation, read-out: % Inhibition to Stimulation by K^+ at 10^-4

T1 sequence (P27112 whole entry): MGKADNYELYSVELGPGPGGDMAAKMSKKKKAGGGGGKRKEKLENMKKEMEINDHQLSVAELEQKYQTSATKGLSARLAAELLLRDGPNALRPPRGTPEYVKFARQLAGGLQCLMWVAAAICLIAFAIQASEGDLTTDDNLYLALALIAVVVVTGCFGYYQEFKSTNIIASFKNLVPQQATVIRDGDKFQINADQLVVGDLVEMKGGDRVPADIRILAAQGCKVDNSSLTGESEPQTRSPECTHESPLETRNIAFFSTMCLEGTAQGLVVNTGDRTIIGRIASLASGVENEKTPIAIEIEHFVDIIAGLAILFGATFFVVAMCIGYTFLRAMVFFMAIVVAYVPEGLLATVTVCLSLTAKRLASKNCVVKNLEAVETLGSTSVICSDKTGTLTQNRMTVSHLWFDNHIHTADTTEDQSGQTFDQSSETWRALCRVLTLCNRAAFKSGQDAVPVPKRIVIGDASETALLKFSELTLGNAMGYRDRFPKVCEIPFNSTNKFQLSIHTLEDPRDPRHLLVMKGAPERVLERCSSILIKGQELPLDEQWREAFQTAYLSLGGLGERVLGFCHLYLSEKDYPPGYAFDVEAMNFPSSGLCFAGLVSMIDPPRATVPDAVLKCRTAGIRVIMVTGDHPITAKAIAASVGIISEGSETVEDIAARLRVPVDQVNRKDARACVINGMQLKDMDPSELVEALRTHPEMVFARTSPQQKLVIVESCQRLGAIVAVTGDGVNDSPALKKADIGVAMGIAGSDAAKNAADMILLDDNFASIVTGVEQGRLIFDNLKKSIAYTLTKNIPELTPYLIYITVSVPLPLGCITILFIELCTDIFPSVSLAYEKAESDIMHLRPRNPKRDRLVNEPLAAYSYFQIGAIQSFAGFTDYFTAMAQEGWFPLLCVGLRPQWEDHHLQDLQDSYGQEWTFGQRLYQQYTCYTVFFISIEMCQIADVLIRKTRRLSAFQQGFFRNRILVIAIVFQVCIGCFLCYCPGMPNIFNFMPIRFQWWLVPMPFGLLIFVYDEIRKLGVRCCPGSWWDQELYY
T1 sequence (P18597 whole entry partner): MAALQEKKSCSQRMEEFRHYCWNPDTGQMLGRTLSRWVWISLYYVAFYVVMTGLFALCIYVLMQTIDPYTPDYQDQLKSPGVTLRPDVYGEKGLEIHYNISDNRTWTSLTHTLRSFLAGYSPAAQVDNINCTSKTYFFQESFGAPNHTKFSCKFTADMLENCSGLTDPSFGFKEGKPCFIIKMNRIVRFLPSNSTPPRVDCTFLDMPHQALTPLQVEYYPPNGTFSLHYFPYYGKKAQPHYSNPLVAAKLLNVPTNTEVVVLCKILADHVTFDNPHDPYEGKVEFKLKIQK

Row | SMILES | inhibition at 100 µM (H^+ /K^+ ATPase; [3]) | inhibition at 100 µM (H^+ /K^+ ATPase; [4]) | inhibition in vivo at 100 mg/kg [1] | change in vivo at 30 mg/kg [2]
1 | c1ccc(CSc2nc3cccc4c3n2CCC4)nc1 [Example 1, 5,6-Dihydro-2-(2-pyridylmethylthio)-4H-imidazo-[4,5,1-ij]-quinoline] | 34% |  | 69% | 
2 | [O-][S+](Cc1ccccn1)c1nc2cccc3c2n1CCC3 (stereo not drawn) [Example 2, 2-(2-Pyridylmethylsulphinyl)-5,6-dihydro-4H-imidazo-[4,5,1-ij]quinoline] | 97% | 65% | 60% | 
3 | Cc1cccnc1CSc1nc2cccc3c2n1CCC3 [Example 3, 5,6-Dihydro-2-(2-(3-methylpyridyl)methylthio)-4-[H]-imidazo-[4,5,1-ij]quinoline] |  | -109% | 68% | 
4 | C1=Cc2cccc3nc(SCc4ccccn4)n(c23)C1 [Example 4, 2-(2-Pyridylmethylthio)-4[H]-imidazo-[4,5,1-ij]quinoline] | 16.7% | 35.5% |  | 
5 | Cc1cccnc1C[S+]([O-])c1nc2cccc3c2n1CCC3 (stereo not drawn) [Example 5, 5,6-Dihydro-2-(2-(3-methylpyridyl)methylsulphinyl)-[4H]-imidazo-[4,5,1-ij]quinoline] | 66% |  |  | 
6 | c1ccc(-c2cccc(CSc3nc4cccc5c4n3CCC5)n2)cc1 [Example 6, 5,6-Dihydro-2-(2-(6-phenylpyridyl)methylthio)-[4H]-imidazo-[4,5,1-ij]quinoline] | 36% | 182% | 58% | 
7 | Cc1cnc(CSc2nc3cccc4c3n2CCC4)c(C)c1 [Example 7, 5,6-Dihydro-2-(2-(3,5-dimethylpyridyl)methylthio)-[4H]-imidazo-[4,5,1-ij]quinoline] | 70% | 74% |  | 
8 | Cc1cnc(C[S+]([O-])c2nc3cccc4c3n2CCC4)c(C)c1 (stereo not drawn) [Example 8] | 48% |  |  | 
9 | c1ccc(-c2nc(CSc3nc4cccc5c4n3CCC5)cs2)cc1 [Example 9, 5,6-Dihydro-2-[(2-phenylthiazol-4-yl)methylthio]-4H-imidazo[4,5,1-ij]quinoline] | 75% | 122% |  | 

Second part, led by results:

Row | inhibition at 100 µM (H^+ /K^+ ATPase; [3]) | inhibition at 100 µM (H^+ /K^+ ATPase; [4]) | SMILES | inhibition in vivo at 100 mg/kg [1] | change in vivo at 30 mg/kg [2]
10 | 98% | 136% | COc1cc2c3c(c1)nc(SCc1cccc(-c4ccccc4)n1)n3CCC2 [Example 10B, 5,6-Dihydro-8-methoxy-2-[(6-phenylpyridin-2-yl)-methylthio]-4H-imidazo[4,5,1-ij]quinoline] |  | 
11 | 62% | 147% | c1ccc2nc(CSc3nc4cccc5c4n3CCC5)ccc2c1 [Example 11, 5,6-dihydro-2-(quinolin-2-ylmethylthio)-4H-imidazo[4,5,1-ij]quinoline] |  | 22%
12 | 70% | 124% | COc1cc2c3c(c1)nc(SCc1ccc4ccccc4n1)n3CCC2 [Example 19, 5,6-Dihydro-8-methoxy-2-(quinolin-2-ylmethylthio)-4H-imidazo-[4,5,1-ij]quinoline] |  | 
13 | 68% |  | COc1cc2c3c(c1)nc(SCc1ccncc1)n3CCC2 [Example 20, 5,6-Dihydro-8-methoxy-2-(4-pyridylmethylthio)-4H-imidazo[4,5,1-ij]quinoline] |  | 
14 | 66% |  | c1cc2c3c(c1)nc(SCc1ccncc1)n3CCC2 [Example 21, 5,6-Dihydro-2-(4-pyridylmethylthio)-4H-imidazo[4,5,1-ij]-quinoline] |  | 
